Here are results for two compounds from patent US6841682B2, “Heterocycles useful in the treatment of benign prostatic hyperplasia” (Janseen Pharmaceutica N.V., priority 1997, dated 2005).

Each structure is given as a SMILES string.

In one experiment the target is T1, α1a-AR (Homo sapiens, UniProt P35348).
T1 construct: expressed in transfected cells; host or cells: COS cells (pcDNA3 vector, DEAE-dextran transient transfection); membrane preparation
T1 sequence (P35348 1-466): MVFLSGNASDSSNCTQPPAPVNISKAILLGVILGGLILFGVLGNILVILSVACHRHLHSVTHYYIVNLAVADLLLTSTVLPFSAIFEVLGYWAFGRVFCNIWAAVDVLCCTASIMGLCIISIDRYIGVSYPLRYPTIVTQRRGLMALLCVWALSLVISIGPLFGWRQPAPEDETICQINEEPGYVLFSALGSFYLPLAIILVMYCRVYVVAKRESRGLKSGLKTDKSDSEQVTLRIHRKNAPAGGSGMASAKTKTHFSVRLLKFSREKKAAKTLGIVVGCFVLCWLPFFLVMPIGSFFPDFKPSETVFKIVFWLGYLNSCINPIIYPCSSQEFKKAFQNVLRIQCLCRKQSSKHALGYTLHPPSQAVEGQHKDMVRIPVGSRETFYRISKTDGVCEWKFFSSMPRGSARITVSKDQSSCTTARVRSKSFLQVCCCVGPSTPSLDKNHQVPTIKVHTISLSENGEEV
Put plainly: radioligand ([125I]-HEAT) receptor binding assay, COS cell membranes, α1a-AR. The settings on record: Tables A-J; [125I]-HEAT 50 pM, COS membranes; read-out: α1a IC50. The source says:
The first assay tested the ability of compounds of Formula I to bind to membrane bound receptors α1a-AR, α1b-AR and α1d-AR.
The DNA sequences of the three cloned human α1-AR subtypes have been published. […] We used published DNA sequence information to design-primers for use in RT-PCR amplification of each subtype to obtain cloned cDNAs. Human poly A+ RNA was obtained from commercially available sources and included hippocampus and prostate samples, sources which have been cited in the literature. For the primary screen a radio ligand binding assay was used which employed membrane preparations from cells expressing the individual cloned receptor cDNAs.
Each α1 receptor subtype was cloned from poly A+ RNA by the standard method of reverse transcription-polymerase chain reaction (RT-PCR). The following sources of polyA+ RNA were used for the cloning of the al receptor subtypes: α1a-AR, human hippocampus and prostate, α1b-AR, human hippocampus, α1d-AR, human hippocampus. The resulting cDNAs were cloned into the pcDNA3 mammalian expression vector (Invitrogen Corp., San Diego Calif.). Each DNA was sequenced for verification and to detect any possible mutations introduced during the amplification process. Any deviation in sequence from the published consensus for each receptor subtype was corrected by site-directed mutagenesis.
The three α1-AR subtypes (a, b, d) were transfected into COS cells using a standard DEAE-dextran procedure with a chloroquine shock. In this procedure, each tissue culture dish (100 mm) was inoculated with 3.5×10^6 cells and transfected with 10 μg of DNA. Approximately 72 hours post-transfection, the cells were harvested and COS membranes were prepared. Transfected COS cells from 25 plates (100 mm) were scraped and suspended in 15 mL of TE buffer (50 mM Tris-HCl, 5 mM EDTA, pH7.4). The suspension was disrupted with a homogenizer. It was then centrifuged at 1000×g for 10 minutes at 4° C. The supernatant was centrifuged at 34,500×g for 20 minutes at 4° C. The pellet was resuspended in 5 mL TNE buffer (50 mM Tris-HCl, 5 mM EDTA, 150 mM NaCl, pH7.4). The resulting membrane preparation was aliquoted and stored at −70° C. The protein concentration was determined following membrane solubilization with TritonX-100.
The ability of each compound to bind to each of the α1-AR subtypes was assessed in a receptor binding assay. […] The plate was incubated for 1 hour at room temperature and the reaction mixtures were filtered through a Packard GF/C Unifilter filter plate. The filter plate was dried for 1 hour in a vacuum oven. Scintillation fluid ([…]) was added to each well, and the filter plate was counted in a Packard Topcount scintillation counter. Data was analyzed using GraphPad Prism software.

Another experiment relates to rat prostatic tissue. Put plainly: norepinephrine-induced contractile response of rat prostatic tissue. Format: cell-based. The settings on record: rat prostate strips, 32° C., pH 7.4, read-out: IC50, inhibition of contractile response in prostate tissue. The source says: The contractile responses of rat prostatic tissue and rat aorta tissues were examined in the presence and absence of antagonist compounds. As an indication of the selectivity of antagonism, test compound effects on vascular smooth muscle contractility (α1b-AR and α1d-AR) were compared to the effects on prostatic smooth muscle (α1a-AR). Strips of prostatic tissue and aortic rings were obtained from Long Evans derived male rats weighing 275 grams and sacrificed by cervical dislocation. The prostate tissue was placed under 1 gram tension in a 10 ml bath containing phosphate buffered saline pH 7.4 at 32° C. and isometric tension was measured with force transducers. The aortic tissue was placed under 2 grams tension in a 10 ml bath containing phosphate buffered saline pH 7.4 at 37° C. The ability of test compound to reduce the norepinephrine-induced contractile response by 50% (IC50) was determined.

With `CC(C)Oc1ccccc1N1CCN(Cc2cc(CN3CCCCC3=O)n[nH]2)CC1` [Compound 3], the IC50 at α1a-AR is 0.0021 µM; in the experiment with rat prostatic tissue, 1.3 µM.

In the case of `CC(C)Oc1ccccc1N1CCN(Cc2ncc(CN3CCCCC3=O)s2)CC1` [Compound 16], the IC50 on α1a-AR turned out to be 0.00188 µM; in the experiment with rat prostatic tissue, 0.38 µM.

What is called IC50 is the midpoint of a concentration-inhibition curve.
